The values below are quoted from earlier work in US9775789B2, “Topical liposome compositions containing phenolic anti-inflammatory agents and their methods of preparation” (D& J ROSEE INC., priority 2012, dated 2017).

The conditions of data set [1]: in vitro; superoxide anion and hydroxyl radicals.
The test system of the next data set is tumor. The following applies: topical application and UV radiation versus controls.
Data set [2] has as its system keratinocytes. The following applies: 6-week application under occlusion.
The next data set deals with cultured keratinocytes. The following applies: in vitro.
The subject of data set [3] is cultured squamous carcinoma cells. The following applies: in vitro.
The test system of data set [4] is keratinocytes. The following applies: applied during 48 hours, then simulated solar radiation (2 MED); skin biopsy.
The test system of data set [5] is nuclear factor kappa beta (NF-κB) in normal human epidermal keratinocytes (NHEK). The following applies: pretreatment of keratinocytes before UVB exposure.
In data set [6] the test system is MRSA. The following applies: all 53 MRSA clinical isolates.
The test system of data set [7] is MRSA. The following applies: time-kill study.
The next data set concerns TNF-α and INF-γ. The following applies: versus control; SEB intraperitoneally.
Data set [8] has as its system atopic dermatitis (AD) type skin lesions. The following applies: daily topical application after allergen extract; versus vehicle.

On to `O=C(O[C@@H]1Cc2c(O)cc(O)cc2O[C@@H]1c1cc(O)c(O)c(O)c1)c1cc(O)c(O)c(O)c1` [EGCG, epigallocatechin gallate], for which the “UV-induced infiltration of inflammatory leukocytes into the skin” value with human skin (EGCG pretreatment) is recorded as “inhibited”. Also, the “UV-induced production of hydrogen peroxide, nitric oxide and lipid peroxide in both epidermis and dermis” value in the data set with human skin (topical application before a single UV exposure (4× MED), punch biopsies) was “markedly decreased”. For the same compound, the ROS scavenging activity entry in [1] was “superior to other tea catechins”. For the same compound, in the data set with tumor, the “tumor incidence and size” value was “significant reductions”. Besides, the epidermal thickness entry in the data set on keratinocytes [2] is “significant increase”. Also, the proliferation of keratinocytes result in the data set with keratinocytes [2] (versus vehicle-treated samples) is listed as “significantly stimulated”. In the data set on cultured keratinocytes, the “effect on cultured keratinocytes” value is on record as “dose-dependent stimulatory effect”. Moreover, the “action against cultured squamous carcinoma cells (apoptosis)” value in data set [3] is listed as “inhibitory action”. Moreover, in the data set with keratinocytes [4], the “greater increase in keratinocyte cell numbers versus vehicle-treated” value is on record as 4 fold. For the same compound, in data set [5], the “UVB-induced activation of NFκB” value was “significant dose- and time-dependent inhibition”. Besides, the “minimal inhibitory concentration (MIC)” value in the data set on MRSA [6] is 32 to 128 µg/mL. Moreover, in the data set on MRSA [7] (one isolate), the bactericidal concentration is 6 times the MIC and the bacteriostatic concentration is listed as 1-2 times the MIC. Further, the “bactericidal concentration, aqueous solution” value in the data set on MRSA [7] (equivalent of 6 times the MIC) is listed as about 0.04%. Also, the “susceptibility of T. rubrum compared with reference antifungals” value in the data set on T. rubrum is “more susceptible than to flucytosine and similar to fluconazole”. Further, in the data set on T. rubrum (11 clinical isolates of T. rubrum), the MIC is 1-16 μg per mL. Moreover, the “serum levels of TNF-α and INF-γ” value in the data set with TNF-α and INF-γ is listed as “significantly reduced”. In addition, in data set [8], the “clinical signs (erythema, edema, scaling and excoriation)” value is given as “significantly lessened”; the ear swelling result is listed as “significantly reduced”.
